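Method: 48-hour compound exposure of cells in 96-well plates, five concentrations, linear interpolation of endpoints. At the GI50, growth is halved.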 The source made the active and inactive calls. Rule as the data show it: active = GI50 up to about 1.1 µM and inactive = higher.
Columns and labels:
Experiment in all cases: NCI tumour cell line growth inhibition, 48 h
XF498 = tested on: XF498
DLD-1 = tested on: DLD-1
DMS-273 = tested on: DMS-273
KM-20L2 = tested on: KM-20L2
DMS-114 = tested on: DMS-114
HOP-18 = tested on: HOP-18
M19-MEL = tested on: M19-MEL
RXF 631 = tested on: RXF 631
SNB-78 = tested on: SNB-78

Structure (SMILES)	GI50 (XF498)	GI50 (DLD-1)	GI50 (DMS-273)	GI50 (KM-20L2)	GI50 (DMS-114)	GI50 (HOP-18)	GI50 (M19-MEL)	GI50 (RXF 631)	GI50 (SNB-78)
CC(=O)Nc1ccc(C(=O)NN2C(=O)C(Cl)C2c2ccccc2O)cc1 (centres undefined)	28.1 µM (inactive)	> 100 µM (inactive)	99.1 µM (inactive)	> 100 µM (inactive)	–	–	–	–	–
CCN1CCC(O)(c2ccc(Cl)c(Cl)c2)C(C(=O)c2ccc(Cl)c(Cl)c2)C1 (centres undefined)	19.2 µM (inactive)	17.8 µM (inactive)	18.1 µM (inactive)	17.9 µM (inactive)	17.1 µM (inactive)	–	–	–	–
CCCCOC(=O)C1C(c2ccc(Cl)cc2)NC(c2ccc(Cl)cc2)C(C(=O)OCCCC)S1(=O)=O (centres undefined)	> 100 µM (inactive)	> 100 µM (inactive)	> 100 µM (inactive)	> 100 µM (inactive)	> 100 µM (inactive)	> 100 µM (inactive)	> 100 µM (inactive)	–	–
CN(C)CCNC(=O)c1ccc(Cl)c2c(Nc3ccc(S(N)(=O)=O)cc3)c3ccccc3nc12	0.165 µM (active)	1.31 µM (inactive)	1.55 µM (inactive)	2.68 µM (inactive)	1.76 µM (inactive)	2.2 µM (inactive)	1.63 µM (inactive)	0.566 µM (active)	–
Nn1c(S)nnc1N/N=C1/C(=O)Nc2ccccc21	37.9 µM (inactive)	48.9 µM (inactive)	–	> 100 µM (inactive)	> 100 µM (inactive)	70.5 µM (inactive)	> 100 µM (inactive)	–	> 100 µM (inactive)
CCOC(=O)/C(=C/c1cccc(C#N)c1)N(CC)CC	> 100 µM (inactive)	> 100 µM (inactive)	–	–	> 100 µM (inactive)	> 100 µM (inactive)	> 100 µM (inactive)	> 100 µM (inactive)	> 100 µM (inactive)
N=C1NC2(O)C(=O)c3ccccc3C2(O)N1 (centres undefined)	–	> 100 µM (inactive)	> 100 µM (inactive)	> 100 µM (inactive)	> 100 µM (inactive)	> 100 µM (inactive)	–	> 100 µM (inactive)	> 100 µM (inactive)
C=CCC(O)c1cc(OC)ccc1OC (centres undefined)	> 100 µM (inactive)	–	> 100 µM (inactive)	–	> 100 µM (inactive)	–	> 100 µM (inactive)	> 100 µM (inactive)	–
COc1cc(C(=O)C/C(CCC(=O)Nc2ccc(Cl)cc2Cl)=N/Nc2nnc(C)n2N)ccc1O	> 100 µM (inactive)	> 100 µM (inactive)	> 100 µM (inactive)	> 100 µM (inactive)	–	> 100 µM (inactive)	> 100 µM (inactive)	–	> 100 µM (inactive)
C=CC/N=C1\NC(=O)C(CC(=O)Nc2ccc(C)cc2)S1 (centres undefined)	> 100 µM (inactive)	> 100 µM (inactive)	> 100 µM (inactive)	> 100 µM (inactive)	> 100 µM (inactive)	> 100 µM (inactive)	> 100 µM (inactive)	> 100 µM (inactive)	–
N#C/C(=C1\OC(=N)C(c2ccc(Cl)cc2Cl)C1=O)c1ccc(Cl)cc1Cl (centres undefined)	86.9 µM (inactive)	> 100 µM (inactive)	> 100 µM (inactive)	> 100 µM (inactive)	> 100 µM (inactive)	–	> 100 µM (inactive)	> 100 µM (inactive)	> 100 µM (inactive)
CCc1ccc(Nc2ccc([N+](=O)[O-])cc2[N+](=O)[O-])cc1	> 100 µM (inactive)	> 100 µM (inactive)	96.6 µM (inactive)	69.3 µM (inactive)	29.4 µM (inactive)	–	> 100 µM (inactive)	–	87.3 µM (inactive)
c1ccc(CN2CCCCC(Sc3ccccc3)CC2)cc1 (centres undefined)	–	20.8 µM (inactive)	12.6 µM (inactive)	26.4 µM (inactive)	22.4 µM (inactive)	42.7 µM (inactive)	3.1 µM (inactive)	–	27.2 µM (inactive)
C[C@]12CC(C#N)C(=O)C(O)=C1CC[C@@H]1C2CC[C@@]2(C)C1CC[C@@H]2O (some centres undefined)	18.8 µM (inactive)	58.3 µM (inactive)	17.3 µM (inactive)	95.5 µM (inactive)	49 µM (inactive)	–	–	–	65.3 µM (inactive)
CCOc1ccc(/C=C2/C(=O)N=C(N)N=C2N)cc1OCC	> 100 µM (inactive)	–	> 100 µM (inactive)	> 100 µM (inactive)	> 100 µM (inactive)	> 100 µM (inactive)	> 100 µM (inactive)	> 100 µM (inactive)	> 100 µM (inactive)
CN(C)P(=O)(/C(N)=N/Nc1ccc([N+](=O)[O-])cc1)N(C)C	> 100 µM (inactive)	> 100 µM (inactive)	> 100 µM (inactive)	> 100 µM (inactive)	61.7 µM (inactive)	–	> 100 µM (inactive)	–	> 100 µM (inactive)
CC(=O)O[C@H]1CCC2[C@@H]3CCC4c5nonc5CC[C@]4(C)C3CC[C@@]21C (some centres undefined)	–	> 10 µM (inactive)	> 10 µM (inactive)	> 10 µM (inactive)	> 10 µM (inactive)	> 10 µM (inactive)	> 10 µM (inactive)	–	> 10 µM (inactive)
N#CC(C(=O)/C(=N/N)C(C#N)c1ccccc1)c1ccccc1 (centres undefined)	> 100 µM (inactive)	> 100 µM (inactive)	–	–	> 100 µM (inactive)	> 100 µM (inactive)	> 100 µM (inactive)	> 100 µM (inactive)	> 100 µM (inactive)
c1cncc(C2c3[nH]c4ccccc4c3CCN2CCN2CCCCC2)c1 (centres undefined)	> 100 µM (inactive)	> 100 µM (inactive)	> 100 µM (inactive)	> 100 µM (inactive)	> 100 µM (inactive)	> 100 µM (inactive)	> 100 µM (inactive)	> 100 µM (inactive)	> 100 µM (inactive)
COC1C(OC(=O)c2ccc(C)[nH]2)C(O)C(Oc2ccc3c(O)c(NC(=O)c4c[nH]c(C(=O)Nc5c(O)c6ccc(OC7OC(C)(C)C(OC)C(OC(=O)c8ccc(C)[nH]8)C7O)c(C)c6oc5=O)c4C)c(=O)oc3c2C)OC1(C)C (centres undefined)	2.18 µM (inactive)	1.86 µM (inactive)	2.86 µM (inactive)	2.4 µM (inactive)	2.02 µM (inactive)	0.596 µM (active)	1.64 µM (inactive)	–	1.56 µM (inactive)
O=C1c2ccccc2C(=O)C2C3c4ccccc4C(c4ccccc43)C12 (centres undefined)	–	> 100 µM (inactive)	19.1 µM (inactive)	> 100 µM (inactive)	16.8 µM (inactive)	–	18.5 µM (inactive)	–	18.7 µM (inactive)
CC1=Nc2ccccc2S(=O)(=O)N1	–	> 100 µM (inactive)	> 100 µM (inactive)	> 100 µM (inactive)	> 100 µM (inactive)	> 100 µM (inactive)	> 100 µM (inactive)	–	> 100 µM (inactive)
O=C(CCN1CCN(c2ccccc2)CC1)N1CCc2c([nH]c3ccccc23)C1c1cccnc1 (centres undefined)	–	18.4 µM (inactive)	17.5 µM (inactive)	15.9 µM (inactive)	13.2 µM (inactive)	18.5 µM (inactive)	19.9 µM (inactive)	–	16.1 µM (inactive)
CCOC(=O)C(C(=O)OCC)S(C)(=O)=O	> 100 µM (inactive)	> 100 µM (inactive)	> 100 µM (inactive)	> 100 µM (inactive)	> 100 µM (inactive)	> 100 µM (inactive)	> 100 µM (inactive)	> 100 µM (inactive)	–
COC(=O)c1cc2cc(OC)c(OC)cc2cc(C(=O)OC)c1=O	> 100 µM (inactive)	> 100 µM (inactive)	> 100 µM (inactive)	> 100 µM (inactive)	29.6 µM (inactive)	> 100 µM (inactive)	> 100 µM (inactive)	> 100 µM (inactive)	> 100 µM (inactive)
O=c1[nH][nH]c(=O)[nH]1	> 100 µM (inactive)	> 100 µM (inactive)	> 100 µM (inactive)	> 100 µM (inactive)	–	–	> 100 µM (inactive)	–	> 100 µM (inactive)
Cn1cnc([N+](=O)[O-])c1Sc1nc2cc(Cl)c(F)cc2[nH]1	–	7.67 µM (inactive)	3.54 µM (inactive)	11.4 µM (inactive)	6.35 µM (inactive)	7.8 µM (inactive)	11.7 µM (inactive)	–	2.43 µM (inactive)

Reference: ChEMBL document CHEMBL1201862, “PubChem BioAssay data set” (2004)
